Laboratory results: patent US7074789B2, “Kinase inhibitors” (Amgen Inc., priority 1999, dated 2006)
Where two headings read alike, the source gives them in different places.

Experiments:
Type in all cases: biochemical
Lck = molecular target: T1, Lck (Homo sapiens, UniProt P06239); assay: Kinase inhibition assay (33P transfer), Lck; details: for IC50: read-out: Lck-1
T1 construct: Kinases are expressed as either kinase domains or full length constructs; made in house
Source text: (§1) The inhibitor compounds described herein are screened in the following manner. Kinases suitable for use in the following protocol to determine kinase activity of the compounds described herein include, -but are not limited to: Lck, Lyn, Src, Fyn, Syk, Zap-70, Itk, Tec, Btk, EGFR, ErbB2, Kdr, Flt-1, Flt-3, Tek, c-Met, InsR, and AKT.
(§2) Kinases are expressed as either kinase domains or full length constructs fused to glutathione S-transferase (GST) or polyHistidine tagged fusion proteins in either E. colior Baculovirus-High Five expression systems. […] In some instances, kinases are co-expressed or mixed with purified or partially purified regulatory polypeptides prior to measurement of activity.
(§3) Briefly, The transfer of ^33PO4 from ATP to the synthetic substrates poly(Glu, Tyr) 4:1 or poly(Arg, Ser) 3:1 attached to the bioactive surface of microtiter plates serves as the basis to evaluate enzyme activity. After an incubation period, the amount of phosphate transferred is measured by first washing the plate with 0.5% phosphoric acid, adding liquid scintillant, and then counting in a liquid scintillation detector.

Zap-70 = molecular target: T2, Zap-70 (Homo sapiens, UniProt P43403); assay: Kinase inhibition assay (33P transfer), Zap-70; details: for IC50: read-out: Zap-1
T2 construct: Kinases are expressed as either kinase domains or full length constructs; made in house
T2 sequence (P43403 1-619): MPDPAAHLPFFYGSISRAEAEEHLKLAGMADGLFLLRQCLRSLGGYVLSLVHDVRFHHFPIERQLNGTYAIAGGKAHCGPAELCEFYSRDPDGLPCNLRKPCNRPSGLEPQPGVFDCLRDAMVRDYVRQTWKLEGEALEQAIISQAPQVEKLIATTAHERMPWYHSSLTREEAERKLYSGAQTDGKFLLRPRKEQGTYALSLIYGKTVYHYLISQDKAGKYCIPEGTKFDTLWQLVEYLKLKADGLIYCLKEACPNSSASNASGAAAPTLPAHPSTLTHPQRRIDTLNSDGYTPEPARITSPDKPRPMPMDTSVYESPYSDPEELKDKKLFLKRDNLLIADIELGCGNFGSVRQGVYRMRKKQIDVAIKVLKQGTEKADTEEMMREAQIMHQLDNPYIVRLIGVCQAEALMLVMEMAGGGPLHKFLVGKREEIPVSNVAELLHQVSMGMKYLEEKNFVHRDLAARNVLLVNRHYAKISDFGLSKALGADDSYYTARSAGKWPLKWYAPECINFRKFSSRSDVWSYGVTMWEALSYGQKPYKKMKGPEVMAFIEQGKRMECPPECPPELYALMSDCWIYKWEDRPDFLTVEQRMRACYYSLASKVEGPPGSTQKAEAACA
Source text: as §1, §2, §3

Itk = molecular target: T3, Itk (Homo sapiens, UniProt Q08881); assay: Kinase inhibition assay (33P transfer), Itk; details: for IC50: read-out: Itk-1
T3 construct: Kinases are expressed as either kinase domains or full length constructs; made in house
T3 sequence (Q08881 1-620): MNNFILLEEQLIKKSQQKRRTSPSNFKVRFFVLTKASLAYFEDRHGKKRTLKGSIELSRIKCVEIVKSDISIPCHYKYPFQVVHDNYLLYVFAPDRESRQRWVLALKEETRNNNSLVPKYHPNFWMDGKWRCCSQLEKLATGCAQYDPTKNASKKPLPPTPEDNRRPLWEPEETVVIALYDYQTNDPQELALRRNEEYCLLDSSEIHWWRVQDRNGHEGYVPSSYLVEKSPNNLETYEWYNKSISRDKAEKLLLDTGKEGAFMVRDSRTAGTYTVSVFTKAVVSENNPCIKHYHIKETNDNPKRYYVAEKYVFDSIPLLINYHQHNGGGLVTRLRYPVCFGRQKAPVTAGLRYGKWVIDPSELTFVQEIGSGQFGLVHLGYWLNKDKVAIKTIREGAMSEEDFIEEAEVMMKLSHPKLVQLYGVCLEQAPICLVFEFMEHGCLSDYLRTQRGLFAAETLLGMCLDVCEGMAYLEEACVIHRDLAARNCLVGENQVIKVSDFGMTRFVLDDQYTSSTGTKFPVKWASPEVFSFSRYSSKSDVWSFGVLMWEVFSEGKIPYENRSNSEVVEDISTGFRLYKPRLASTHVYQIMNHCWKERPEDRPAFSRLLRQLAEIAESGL
Source text: as §1
(§4) Kinases are expressed as either kinase domains or full length constructs fused to glutathione S-transferase (GST) or polyHistidine tagged fusion proteins in either E. colior Baculovirus-High Five expression systems. They are purified to near homogeneity by affinity chromatography essentially as previously described (Lehr et al., 1996; Gish et al., 1995). In some instances, kinases are co-expressed or mixed with purified or partially purified regulatory polypeptides prior to measurement of activity.
as §3, with “Kinase activity and inhibition are measured essentially by established protocols (Braunwalder et al., 1996). Briefly,” for “Briefly,”, “detector. The IC50 is determined by the concentration of compound that causes a 50% reduction in the amount of […] incorporated onto the substrate bound to the plate.” for “detector.”

EGFR = molecular target: T4, EGFR (Homo sapiens, UniProt P00533); assay: Kinase inhibition assay (33P transfer), EGFR; details: Table 2, kinase inhibition class; for IC50: read-out: EGFR-1
T4 construct: Kinases are expressed as either kinase domains or full length constructs; made in house
Source text: as §1, §4
as §3, with “Kinase activity and inhibition are measured essentially by established protocols (Braunwalder et al., 1996). Briefly,” for “Briefly,”, “detector. The IC50 is determined by the concentration of compound that causes a 50% reduction in the amount of […] incorporated onto the substrate bound to the plate.” for “detector.”

Kdr = molecular target: T5, Kdr (Homo sapiens, UniProt P35968); assay: Kinase inhibition assay (33P transfer), Kdr; details: for IC50: read-out: KDR-1
T5 construct: Kinases are expressed as either kinase domains or full length constructs; made in house
Source text: as §1, §2, §3

c-Met = molecular target: T6, c-Met (Homo sapiens, UniProt P08581); assay: Kinase inhibition assay (33P transfer), c-Met; details: Table 2, kinase inhibition class; for IC50: read-out: Met-1
T6 construct: Kinases are expressed as either kinase domains or full length constructs; made in house
Source text: as §1, §4
as §3, with “Kinase activity and inhibition are measured essentially by established protocols (Braunwalder et al., 1996). Briefly,” for “Briefly,”, “detector. The IC50 is determined by the concentration of compound that causes a 50% reduction in the amount of […] incorporated onto the substrate bound to the plate.” for “detector.”

AKT = molecular target: T7, AKT (Homo sapiens, UniProt Q9Y243); assay: Kinase inhibition assay (33P transfer), AKT; details: Table 2, kinase inhibition class; for IC50: read-out: AKT3-1
T7 construct: Kinases are expressed as either kinase domains or full length constructs; made in house
Source text: as §1, §2, §3

T6 sequence (P08581 25-1390): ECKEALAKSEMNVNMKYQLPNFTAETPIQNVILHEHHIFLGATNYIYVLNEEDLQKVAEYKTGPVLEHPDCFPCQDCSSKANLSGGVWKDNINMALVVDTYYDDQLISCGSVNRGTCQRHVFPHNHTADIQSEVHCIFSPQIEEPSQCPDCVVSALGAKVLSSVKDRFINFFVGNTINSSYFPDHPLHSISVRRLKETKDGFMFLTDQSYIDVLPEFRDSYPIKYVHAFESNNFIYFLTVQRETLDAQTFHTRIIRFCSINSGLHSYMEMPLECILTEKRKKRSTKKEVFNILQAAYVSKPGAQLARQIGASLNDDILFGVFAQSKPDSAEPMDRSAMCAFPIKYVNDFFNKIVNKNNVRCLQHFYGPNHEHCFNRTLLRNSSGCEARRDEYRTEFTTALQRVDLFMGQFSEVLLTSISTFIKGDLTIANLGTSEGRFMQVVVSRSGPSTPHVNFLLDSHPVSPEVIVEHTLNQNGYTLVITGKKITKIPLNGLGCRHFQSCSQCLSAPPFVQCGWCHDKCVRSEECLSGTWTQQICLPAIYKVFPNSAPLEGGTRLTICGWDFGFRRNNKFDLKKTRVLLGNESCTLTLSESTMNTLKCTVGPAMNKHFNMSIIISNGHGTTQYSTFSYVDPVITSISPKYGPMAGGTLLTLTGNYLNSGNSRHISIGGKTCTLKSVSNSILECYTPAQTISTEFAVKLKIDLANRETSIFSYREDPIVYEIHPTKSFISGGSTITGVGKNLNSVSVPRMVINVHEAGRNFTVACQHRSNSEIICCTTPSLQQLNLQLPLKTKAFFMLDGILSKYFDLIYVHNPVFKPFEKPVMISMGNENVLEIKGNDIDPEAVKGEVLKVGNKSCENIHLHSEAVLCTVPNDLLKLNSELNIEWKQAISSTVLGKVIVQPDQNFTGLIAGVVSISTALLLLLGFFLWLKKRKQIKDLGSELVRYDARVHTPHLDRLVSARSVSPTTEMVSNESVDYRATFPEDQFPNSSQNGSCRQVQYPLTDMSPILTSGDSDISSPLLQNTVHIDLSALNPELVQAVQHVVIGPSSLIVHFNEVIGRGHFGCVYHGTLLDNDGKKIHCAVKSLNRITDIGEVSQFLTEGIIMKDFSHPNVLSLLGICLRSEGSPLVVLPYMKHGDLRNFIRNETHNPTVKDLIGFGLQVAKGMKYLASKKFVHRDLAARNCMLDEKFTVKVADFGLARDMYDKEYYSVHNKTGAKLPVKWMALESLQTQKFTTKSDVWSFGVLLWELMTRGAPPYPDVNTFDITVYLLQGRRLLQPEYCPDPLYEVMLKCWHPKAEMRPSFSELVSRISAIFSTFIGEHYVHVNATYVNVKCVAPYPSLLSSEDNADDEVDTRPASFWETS
T1 sequence (P06239 whole entry, species assumed, the tested form may be a part): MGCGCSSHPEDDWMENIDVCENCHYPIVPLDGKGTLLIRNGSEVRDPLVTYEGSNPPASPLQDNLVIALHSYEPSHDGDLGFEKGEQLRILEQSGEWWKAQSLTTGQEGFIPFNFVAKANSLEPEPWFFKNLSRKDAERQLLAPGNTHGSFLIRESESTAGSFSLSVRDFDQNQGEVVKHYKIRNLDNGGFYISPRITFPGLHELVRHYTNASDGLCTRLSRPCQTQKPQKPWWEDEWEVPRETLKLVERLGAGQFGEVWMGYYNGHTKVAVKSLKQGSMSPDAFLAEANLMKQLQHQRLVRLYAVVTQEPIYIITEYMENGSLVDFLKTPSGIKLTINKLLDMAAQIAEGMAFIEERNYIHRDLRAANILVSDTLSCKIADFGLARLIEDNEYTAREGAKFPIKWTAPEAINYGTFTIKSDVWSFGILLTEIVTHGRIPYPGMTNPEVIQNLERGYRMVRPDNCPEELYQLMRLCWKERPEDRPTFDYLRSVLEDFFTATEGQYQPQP
T7 sequence (Q9Y243 whole entry, the tested form may be a part): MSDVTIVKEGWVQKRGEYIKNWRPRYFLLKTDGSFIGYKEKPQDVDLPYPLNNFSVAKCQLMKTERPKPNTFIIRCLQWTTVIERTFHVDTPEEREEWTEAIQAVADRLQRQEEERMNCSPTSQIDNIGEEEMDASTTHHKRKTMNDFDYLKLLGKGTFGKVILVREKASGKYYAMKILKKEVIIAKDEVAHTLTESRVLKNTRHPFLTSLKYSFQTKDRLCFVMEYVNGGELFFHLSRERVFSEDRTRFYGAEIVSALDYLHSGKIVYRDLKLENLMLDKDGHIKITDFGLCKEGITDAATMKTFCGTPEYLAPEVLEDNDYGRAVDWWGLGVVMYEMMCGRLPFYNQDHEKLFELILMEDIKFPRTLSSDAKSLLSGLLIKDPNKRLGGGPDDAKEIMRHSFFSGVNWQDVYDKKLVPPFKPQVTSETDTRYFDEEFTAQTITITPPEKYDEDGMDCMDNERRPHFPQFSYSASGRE
T5 sequence (P35968 20-1356, species assumed): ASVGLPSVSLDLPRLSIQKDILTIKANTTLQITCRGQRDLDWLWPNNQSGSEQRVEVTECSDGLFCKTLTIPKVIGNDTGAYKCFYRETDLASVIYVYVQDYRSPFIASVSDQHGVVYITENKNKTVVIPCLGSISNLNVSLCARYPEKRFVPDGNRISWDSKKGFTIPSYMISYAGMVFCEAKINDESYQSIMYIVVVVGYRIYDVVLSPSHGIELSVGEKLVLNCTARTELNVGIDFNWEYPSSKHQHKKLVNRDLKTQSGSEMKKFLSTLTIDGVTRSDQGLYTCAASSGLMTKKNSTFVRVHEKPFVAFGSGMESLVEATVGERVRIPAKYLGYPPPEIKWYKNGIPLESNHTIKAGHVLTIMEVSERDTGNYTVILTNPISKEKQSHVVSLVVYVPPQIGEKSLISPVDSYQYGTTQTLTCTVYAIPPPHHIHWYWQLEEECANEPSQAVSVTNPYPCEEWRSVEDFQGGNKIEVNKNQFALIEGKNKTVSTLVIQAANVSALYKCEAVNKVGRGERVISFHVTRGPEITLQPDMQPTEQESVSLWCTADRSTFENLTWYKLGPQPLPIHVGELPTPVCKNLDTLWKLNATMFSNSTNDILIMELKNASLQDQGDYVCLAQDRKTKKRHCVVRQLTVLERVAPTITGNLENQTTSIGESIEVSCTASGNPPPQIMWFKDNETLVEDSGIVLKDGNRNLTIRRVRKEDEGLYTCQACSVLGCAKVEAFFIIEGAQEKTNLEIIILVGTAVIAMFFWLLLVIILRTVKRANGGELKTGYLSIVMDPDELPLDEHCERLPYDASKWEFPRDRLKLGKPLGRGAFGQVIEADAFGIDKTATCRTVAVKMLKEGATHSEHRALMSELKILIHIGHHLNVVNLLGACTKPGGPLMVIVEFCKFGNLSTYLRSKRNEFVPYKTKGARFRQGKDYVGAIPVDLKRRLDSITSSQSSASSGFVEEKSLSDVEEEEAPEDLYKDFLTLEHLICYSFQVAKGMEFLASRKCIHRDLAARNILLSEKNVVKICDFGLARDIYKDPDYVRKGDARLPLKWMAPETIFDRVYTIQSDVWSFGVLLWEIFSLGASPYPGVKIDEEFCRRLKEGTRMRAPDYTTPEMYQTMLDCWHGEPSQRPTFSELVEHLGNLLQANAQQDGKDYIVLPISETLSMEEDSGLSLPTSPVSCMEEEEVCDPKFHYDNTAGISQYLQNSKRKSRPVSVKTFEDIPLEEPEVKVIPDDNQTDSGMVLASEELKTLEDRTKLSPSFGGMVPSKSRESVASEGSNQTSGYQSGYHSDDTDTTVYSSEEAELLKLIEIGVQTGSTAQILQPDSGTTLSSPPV
T4 sequence (P00533 25-1210, species assumed): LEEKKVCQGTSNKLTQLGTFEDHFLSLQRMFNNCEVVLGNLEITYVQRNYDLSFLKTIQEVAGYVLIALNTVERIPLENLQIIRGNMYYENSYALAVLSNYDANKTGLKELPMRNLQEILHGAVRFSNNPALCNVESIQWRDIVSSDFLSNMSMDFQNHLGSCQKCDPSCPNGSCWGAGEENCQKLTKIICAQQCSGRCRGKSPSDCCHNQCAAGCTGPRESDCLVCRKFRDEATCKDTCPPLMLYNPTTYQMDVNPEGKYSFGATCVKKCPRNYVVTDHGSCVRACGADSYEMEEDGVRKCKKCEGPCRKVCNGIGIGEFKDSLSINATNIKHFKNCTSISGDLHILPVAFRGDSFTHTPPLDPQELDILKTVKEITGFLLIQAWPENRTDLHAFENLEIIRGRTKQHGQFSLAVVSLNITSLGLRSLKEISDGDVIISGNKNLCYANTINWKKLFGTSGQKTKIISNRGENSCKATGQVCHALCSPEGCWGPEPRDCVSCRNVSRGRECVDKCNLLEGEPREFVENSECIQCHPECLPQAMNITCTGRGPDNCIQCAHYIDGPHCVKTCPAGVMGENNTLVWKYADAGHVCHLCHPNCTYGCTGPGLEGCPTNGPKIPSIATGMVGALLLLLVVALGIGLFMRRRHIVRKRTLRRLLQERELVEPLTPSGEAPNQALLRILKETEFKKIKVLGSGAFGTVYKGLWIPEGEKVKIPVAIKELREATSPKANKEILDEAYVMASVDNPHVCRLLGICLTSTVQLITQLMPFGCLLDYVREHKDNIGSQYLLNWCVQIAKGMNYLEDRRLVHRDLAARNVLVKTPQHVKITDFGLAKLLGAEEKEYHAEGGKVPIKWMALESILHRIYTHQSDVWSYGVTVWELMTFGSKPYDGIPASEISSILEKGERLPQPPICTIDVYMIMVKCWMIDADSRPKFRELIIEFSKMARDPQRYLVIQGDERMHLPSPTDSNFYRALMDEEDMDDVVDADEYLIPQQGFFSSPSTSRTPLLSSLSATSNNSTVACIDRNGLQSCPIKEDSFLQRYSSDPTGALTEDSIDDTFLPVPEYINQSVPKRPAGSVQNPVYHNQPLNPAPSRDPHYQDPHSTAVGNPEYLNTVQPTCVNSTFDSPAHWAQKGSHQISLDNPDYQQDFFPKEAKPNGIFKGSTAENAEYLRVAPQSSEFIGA

IC50 (Lck)	IC50 (Zap-70)	IC50 (Itk)	IC50 (EGFR)	IC50 (Kdr)	IC50 (c-Met)	IC50 (AKT)	IC50 (Lck; Table 3)	IC50 (Zap-70; Table 3)	IC50 (Itk; Table 3)	IC50 (Kdr; Table 3)	Structure (SMILES)	Lck-1 (Lck)	Zap-1 (Zap-70)	Itk-1 (Itk)	EGFR-1 (EGFR)	KDR-1 (Kdr)	Met-1 (c-Met)	AKT3-1 (AKT)
> 13.3 µM	> 13.3 µM	> 13.3 µM	1.18 to 7.08 µM	> 13.3 µM	7.08 to 10.3 µM	> 13.3 µM	–	–	–	–	O=c1[nH]c2ccccc2n1-c1ncnc(Nc2ccccc2Cl)n1 [Compound 484]	–	–	–	–	–	–	–
> 10.1 µM	> 10.1 µM	> 10.1 µM	> 10.1 µM	> 10.1 µM	> 10.1 µM	> 10.1 µM	–	–	–	–	COc1cc(Nc2ncnc(-c3ccc(NCc4ccccc4)nc3)n2)cc(OC)c1OC [Compound 471]	–	–	–	–	–	–	–
> 16.5 µM	8.8 to 12.8 µM	> 16.5 µM	> 16.5 µM	> 16.5 µM	> 16.5 µM	> 16.5 µM	–	–	–	–	Clc1ncnc(Nc2cc(-c3ccccc3)n[nH]2)n1 [Compound 976]	–	–	–	–	–	–	–
–	–	–	–	–	–	–	–	–	–	–	COc1cc(Nc2ncnc(-c3cccnc3NCCN)n2)cc(OC)c1OC [Compound 1074]	C (C>2.4 and <3.5 ug/mL)	E (E>4.5 ug/mL)	E (E>4.5 ug/mL)	E (E>4.5 ug/mL)	B (B>0.4 and <2.4 ug/mL)	E (E>4.5 ug/mL)	E (E>4.5 ug/mL)
–	–	–	> 9.97 µM	–	> 9.97 µM	> 9.97 µM	> 9.97 µM	> 9.97 µM	> 9.97 µM	> 9.97 µM	CC[C@H]1CN(c2ccc(-c3ncnc(Nc4cc(OC)c(OC)c(OC)c4)n3)cn2)CCN1 [Compound 446]	–	–	–	–	–	–	–
7.49 to 10.9 µM	> 14 µM	10.9 to 14 µM	1.25 to 7.49 µM	1.25 to 7.49 µM	7.49 to 10.9 µM	> 14 µM	–	–	–	–	O=c1[nH]c2ccccc2n1-c1ncnc(Nc2ccc(O)cc2)n1 [Compound 682]	–	–	–	–	–	–	–
–	–	–	> 9.62 µM	–	> 9.62 µM	> 9.62 µM	0.855 to 5.13 µM	> 9.62 µM	> 9.62 µM	5.13 to 7.49 µM	CCN(CC)CCCNc1ccc(-c2ncnc(Nc3cc(OC)c(OC)c(OC)c3)n2)cn1 [Compound 448]	–	–	–	–	–	–	–
–	–	–	> 9.04 µM	–	> 9.04 µM	> 9.04 µM	> 9.04 µM	> 9.04 µM	> 9.04 µM	> 9.04 µM	COc1cc(Nc2ncnc(-n3c(NC(=O)c4ccccc4)nc4ccccc43)n2)cc(OC)c1OC [Compound 435]	–	–	–	–	–	–	–
–	–	–	> 14.3 µM	–	> 14.3 µM	> 14.3 µM	> 14.3 µM	> 14.3 µM	> 14.3 µM	> 14.3 µM	NC(=O)[C@H](CO)Nc1ncnc(-n2c(=O)[nH]c3ccccc32)n1 [Compound 450]	–	–	–	–	–	–	–
–	–	–	7.08 to 10.3 µM	–	> 13.3 µM	> 13.3 µM	10.3 to 13.3 µM	> 13.3 µM	> 13.3 µM	1.18 to 7.08 µM	O=c1[nH]c2ccccc2n1-c1ncnc(Nc2cccc(Cl)c2)n1 [Compound 457]	–	–	–	–	–	–	–
9.38 to 12.1 µM	9.38 to 12.1 µM	> 12.1 µM	> 12.1 µM	> 12.1 µM	> 12.1 µM	> 12.1 µM	–	–	–	–	O=c1[nH]c2ccccc2n1-c1ncnc(Nc2cc(Cl)cc(Cl)c2)n1 [Compound 503]	–	–	–	–	–	–	–
